Experimental findings from US20070004689A1, “Antiangiogenic agents” (priority 2004, published 2007) are described below.

The term IC50 denotes the point on the concentration scale where inhibition reaches its midpoint.

Structures are written as SMILES. Like-named read-outs stand apart in the source and are kept apart here.

Series [1] deals with PC3 a human prostate carcinoma. Description: Proliferation assay, PC3. It is filed as cell-based. The conditions noted are these: proliferation, read-out: PC3 (IC50 μM). From the text: (§1) Cell Culture: Human umbilical vein endothelial cells (HUVEC) were obtained from Clonetics (San Diego, Calif.), MCF7 cells were the kind gift of Dr. Dorraya El Ashry (University of Michigan), MDA-MB-231 a human breast carcinoma, PC3 a human prostate carcinoma, and U87-MG a human glioma, cell lines were obtained from ATCC. HUVEC cultures were maintained for up to 5 passages in EGM containing bovine brain extract (Clonetics) and 1× antibiotic-antimycotic (BioWhittaker, Walkersville, Md.). MDA-MB-231, PC3, U87-MG and MCF-7 cells were maintained in DMEM/F12 (1:1) containing 10% (v/v) fetal bovine serum (Hyclone Laboratories, Logan, Utah) and 1× antibiotic-antimycotic. MCF7 cells were used between passage 60 and passage 100.
(§2) Proliferation Assays: Proliferation was measured by cell counting using a Coulter Zl cell counter (Coulter Corporation, Hialeah, Fla.) or by evaluation of DNA synthesis. Each condition was done in triplicate and experiments were repeated at least twice. To determine estrogenicity of the analogs, MCF7 estrogen-dependent proliferation assays were performed. The cells were seeded in complete media at 10,000 cells/well in a 24 well plate after allowing the cells to adhere overnight and the seeding density was determined by cell counts. Cells were washed with PBS (37° C.) and starved by placing them in IMEM-phenol red free media containing 2% charcoal-dextran fetal bovine-stripped serum (Valley Biomedical, Winchester, Va.) and 1× antibiotic-antimycotic. After 3 days of starvation, cells were treated with or without increasing concentrations of compounds, replacing the media every 2-3 days and counted after 7 days of treatment. In order to ensure that only the added test compounds stimulated growth, experiments were performed only with cell cultures that duplicated less than once during the starvation period. Values are expressed as MCF7 stimulation index (SI) relative to 2ME2 (defined as 1.00). A value less than 1.00 indicates reduced estrogenicity. Estradiol is used as a positive control.
(§3) To determine anti-tumor and anti-angiogenic activities of the analogs, proliferation assays were performed by evaluating detection of DNA synthesis by use of the 5-bromo-2′-deoxyuridine (BrdU) cell proliferation colorimetric ELISA kit from Roche (Indianapolis, Ind.) according to the manufacturer's instructions. For BrdU assays, the cells were seeded at 1,000 cells/well (MDA-MB-231, anti-tumor activity) or 3,000 cells/well (HUVEC, anti-angiogenic activity) in a 96 well plate, allowed to attach overnight and then exposed to the compound for 48 h. IC50 value is the concentration at which cell proliferation is inhibited by 50%.
(§4) Antiproliferative activity of the NCEs were assessed in tumor cell lines (MDA-MB-231 a breast carcinoma, PC3 a prostate carcinoma and U87-MG a glioma) and endothelial cells (HUVEC).

Series [2] has as its system Human umbilical vein endothelial cells (HUVEC). Description: BrdU proliferation assay, HUVEC (anti-angiogenic activity). The class given is cell-based. Particulars: BrdU DNA synthesis, 48 h exposure, read-out: HUVEC (IC50 μM).
Source text: as §1, §2, §3, §4

Series [3] concerns Rat hepatocyte suspensions. The series is described as follows: Hepatocyte incubations, rat. Particulars: rat hepatocytes, NR = no reaction; for Hepatocyte Rat 60/120′ (1 uM): 60′ / Hepatocyte Rat 60/120′ (5 uM): 60′: 60 minutes; for Hepatocyte Rat 60/120′ (1 uM): 60′ / Hepatocyte Rat 60/120′ (1 uM): 120′: in % (unit assumed); for Hepatocyte Rat 60/120′ (1 uM): 120′ / Hepatocyte Rat 60/120′ (5 uM): 120′: 120 minutes; for Hepatocyte Rat 60/120′ (5 uM): 60′ / Hepatocyte Rat 60/120′ (5 uM): 120′: unit assumed. The class given is in vitro ADME. As for the experimental part: Hepatocyte Incubations: An in vitro measure of metabolism using cells from rat and human liver. Rat and human hepatocyte suspensions (10^6 cells per mL of serum-free (H)CL15 culture medium) were incubated with 2 concentrations (1 and 5 μM) of each of the compounds. Stock solutions were prepared in DMSO, and were further diluted in culture medium to the final test concentrations. 7-Ethoxycoumarin (7-EC) were included as a positive control substrate for P450. A 0.1 M 7-EC stock solution was prepared in DMSO, and the final assay concentration was 100 μM. The reactions were initiated by the addition of the substrates, incubated at 37° C., and terminated after 0, 60 and 120 minutes by addition of acetonitrile. The positive 7-EC control reactions were stopped with perchloric acid or ZnSO4 and BaOH after 60-minutes of incubation. The reaction mixture was centrifuged to remove the cell debris, and the supernatant was used for subsequent analysis by HPLC/LC-MS. If necessary, the supernatants were flash frozen in liquid N2 and stored at −70° C. until further analysis. HPLC was used to analyze product formation from 7-EC. Analyses to determine the concentration of the test compounds were carried out using reverse phase HPLC with tandem mass spectrometric detection (LC-MS/MS). Samples were analyzed to measure the disappearance of parent compound over time. The rate of metabolism was estimated by fitting a curve to the data for each concentration against time using GraphPad Prism Version 3.02 software.

Series [4] concerns CYP450 (CYP1A2, CYP2C9, CYP2C19, CYP2D6, CYP3A) in pooled human liver microsomes. Description: CYP450 inhibition using human microsomes. Particulars: test compound 0.034-25 μM, CYP inhibited. The class given is in vitro ADME. As for the experimental part: Determination of CYP450 inhibition and IC50 value using human microsomes: CYP450 inhibition provides a measure of potential issues with co-medication, since CYP450 enzymes metabolize many drugs. Microsomal incubation mixtures (500 μL) were prepared in HEPES buffer (50 mM HEPES, 15 mM MgCl2, 0.1 mM EDTA, pH 7.6) containing a NADPH regenerating system (1 mM NADPH, 10 mM glucose-6-phosphate 1 IU glucose-6-phosphate dehydrogenase), pooled human liver microsomes (0.5 mg protein), and 5 μL of 7 concentrations of compounds and positive control inhibitors (see Tables IV, V and VI).
After addition of the compounds or positive control inhibitors, the samples were pre-incubated at 37° C. for approximately 5 minutes. Subsequently, the P450 substrate cocktail were added to the reaction mixture and incubated for 20 minutes at 37° C. Reactions were terminated by the addition of 250 μL of methanol containing 5 μM dextrorphan as an internal standard (IS). The samples were vortexed briefly, placed on ice, and then centrifuged at approximately 12000×g for 5 minutes to remove debris. The supernatant from each sample was then transferred to a separate vial for LC-MS/MS analysis. Analysis to determine the amount of substrate specific metabolites (relative to the control samples) was carried out using reverse phase HPLC with tandem mass spectrometric detection (LC-MS/MS). Analysis of the data was carried out using Micromass MetaboLynx and QuanLynx software Versions 3.5 to determine the amount of the specific substrate metabolites produced in each sample (relative to the control samples).

Consider `COc1cc2c(cc1C(N)=O)CC[C@@H]1[C@@H]2CC[C@]2(C)C=CC[C@@H]12` [Compound 63, 3-carboxamide-2-methoxy-1,3,5(10)16-estratetraene], for which, in series [1], the 50% inhibitory concentration (IC50) is 0.21 ± 0.1 µM. In addition, the IC50 in series [2] was 0.13 ± 0.05 µM. For the same molecule, in series [3], the “Hepatocyte Rat 60/120′ (1 uM): 60′” value stood at 77, the “Hepatocyte Rat 60/120′ (1 uM): 120′” value is reported as 67, the Hepatocyte Rat 60/120′ (5 uM): 60′ turned out to be 78% and the Hepatocyte Rat 60/120′ (5 uM): 120′ is 87%. Further, the CYP450 inhib. entry in series [4] is recorded as “None”.
In the case of `COc1cc2c(cc1C(N)=O)CC[C@@H]1[C@@H]2CC[C@]2(C)CCC[C@@H]12` [Compound 57, (2-Methoxyestra-1,3,5(10)-trien-3-yl)-3-carboxamide], in series [1], the IC50 is 5.7 ± 0.58 µM. The 50% inhibitory concentration (IC50) in series [2] is 0.96 ± 0.26 µM. Besides, in series [3], the “Hepatocyte Rat 60/120′ (1 uM): 60′” value is on record as 91, the “Hepatocyte Rat 60/120′ (1 uM): 120′” value was found to be 85, the Hepatocyte Rat 60/120′ (5 uM): 60′ is 95% and the Hepatocyte Rat 60/120′ (5 uM): 120′ was 83%. Besides, in series [4], the CYP450 inhib. result is “None”.
Turning to `C=C1CC[C@H]2[C@@H]3CCc4cc(C(N)=O)c(OC)cc4[C@H]3CC[C@]12C` [Compound 60, 2-Methoxy-17-methyleneestra-1,3,5(10)-triene-3-carboxamide], in series [1] (Homo sapiens), the IC50 was 0.25 ± 0.01 µM. In series [2] (Homo sapiens, HUVEC), the IC50 was found to be 0.12 ± 0.06 µM. In series [3], the “Hepatocyte Rat 60/120′ (1 uM): 60′” value worked out at 99, the “Hepatocyte Rat 60/120′ (1 uM): 120′” value was found to be 87 and the Hepatocyte Rat 60/120′ (5 uM): 60′ came to 87%. Also, the CYP450 inhib. result in series [4] is recorded as “None”.
Turning to `COc1cc2c(cc1C(N)=O)CC[C@@H]1[C@@H]2CC[C@]2(C)C(=O)CC[C@@H]12` [Compound 54, 2-methoxy-17-oxoestra-1,3,5(10)-triene-3-carboxamide], the IC50 in series [1] (Homo sapiens) came out at 4.64 ± 0.9 µM. Moreover, the IC50 in series [2] (Homo sapiens, HUVEC) came out at 5.46 ± 1.57 µM. For the same molecule, in series [3], the “Hepatocyte Rat 60/120′ (1 uM): 60′” value turned out to be 78, the Hepatocyte Rat 60/120′ (5 uM): 60′ is 95% and the Hepatocyte Rat 60/120′ (5 uM): 120′ was determined as 101%. The CYP450 inhib. result in series [4] is on record as “None”.
